In patent US7390915B1, “Phosphine transition metal complex having ferrocene skeleton, process for making the same, and anti-cancer agent” (Nippon Chemical Industrial Co., Ltd, priority 2007, dated 2008) one finds IC50 data, which are given here for eight substances.

The subject of this assay is HL-60 (human acute myeloid leukemia cells). Nature of the assay: Evaluation of anti-cancer activity: HL-60 cell survival by modified Mosmann (MTT) method. The format is cell-based. The settings on record: read-out: IC50 (concentration of inhibitor that inhibits cell growth to 50%), HL-60 cells, 24 hours culture with compound, average of at least three experiments. The method, then: <Evaluation of Anti-Cancer Activity>
HL-60 (human acute myeloid leukemia cells) as the cancerous cells was cultured under a 5% CO2 atmosphere in a wet incubator at 37° C. in a Roswell Park Memorial Institute medium (RPMI 1640) supplemented with 10% fetal bovine serum and 1% antibiotic and antimycotic.
The cells were washed with PBS and counted. A 1×10^6 cells/mL suspension was then prepared using the same medium. The suspension was added to a sterilized 96-well microplate at a density of 50000 cells per well.
The number of survived cells was then evaluated by a modified Mosmann method (T. Mosmann, J. Immunol. Method (1983) 65, 55-63). That is, a solution of a tetrazolium salt (3,[4,5-dimethylthiazol-2-yl]-2,5-diphenyltetrazolium bromide (MTT)) was added, and the culture was continued for 3 hours under the same conditions. Formazan crystals generated by enzymatic activity of the mitochondria in the cells were dissolved in 0.04 mol HCl/isopropyl alcohol and the absorbance at 595 nm was measured using a microplate reader (Bio-Rad 550). In order to eliminate the background, the absorbance at 630 nm was measured and subtracted from the observed absorbance at 595 nm. […] Note that in calculating the IC50 value, the average of values of at least three experiments conducted under the same conditions was used.

Take “Bis((R)-1-((S)-2-(dicyclohexylphosphino)ferrocenyl)ethyldicyclohexylphosphine)gold(I)chloride [Example 1]”: the IC50 worked out at 19.2 µM.
Regarding “Bis((R)-1-((S)-2-(dicyclohexylphosphino)ferrocenyl)ethyldiphenylphosphine)gold(I)chloride [Example 3]”, the IC50 was found to be 7.92 µM.
“Bis((R)-1-((S)-2-(diphenylphosphino)ferrocenyl)ethyldicyclohexylphosphine)gold(I)chloride [Example 2]”: the IC50 worked out at 8.69 µM.
Under “Bis((S)-1-((R)-2-(dicyclohexylphosphino)ferrocenyl)ethyldiphenylphosphine)gold(I)chloride [Example 4]” stands 9.21 µM; under “bis(1,1′-bis-(diphenylphosphino)-2,2-bis-[(S)-4-isobutyl-2-yl]ferrocene)digold(I)dichloride [Example 7]”, 2.1 µM.
Under “bis(1,1′-bis-(diphenylphosphino)-2,2-bis-[(S)-4-isopropyl-2-yl]ferrocene)digold(I)dichloride [Example 5]” stands 0.803 µM.
“bis(1,1′-bis-(diphenylphosphino)-2,2-bis-[(S)-4-sec-butyl-2-yl]ferrocene)digold(I)dichloride [Example 8]”: the IC50 came out at 3.54 µM.
For “bis(1,1′-bis-(diphenylphosphino)-2,2-bis-[(S)-4-tert-butyl-2-yl]ferrocene)digold(I)dichloride [Example 6]”, the IC50 turned out to be 2.31 µM.
